According to patent US9128087B2, “Nuclear receptor assay” (PamGene B.V., priority 2006, dated 2015):

Target: T1, PPAR gamma (Homo sapiens, UniProt P37231)
T1 construct: were incubated with GST-tagged PPAR gamma LBD domain (Invitrogen); purchased Invitrogen
T1 sequence (P37231 238-503 limits assumed): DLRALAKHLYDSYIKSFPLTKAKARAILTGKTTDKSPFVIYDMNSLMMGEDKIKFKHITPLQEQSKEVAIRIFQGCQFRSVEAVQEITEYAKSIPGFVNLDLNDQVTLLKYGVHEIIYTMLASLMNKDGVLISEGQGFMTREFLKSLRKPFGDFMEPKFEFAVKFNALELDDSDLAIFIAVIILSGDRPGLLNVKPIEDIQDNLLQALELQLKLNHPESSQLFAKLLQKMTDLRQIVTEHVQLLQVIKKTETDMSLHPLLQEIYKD
Test: PamChip microarray binding of PPAR gamma LBD to 48 co-regulator derived peptides
Type: biochemical
Conditions: 1E-3.7 M ligand compared to array without ligand
Protocol: A microarray set-up was prepared comprising 48 peptides immobilized, i.e., a set of 48 co-regulator-derived motifs corresponding to SEQ ID NOs 1, 3-13, 15-46, and 50-53. In this experiment each peptide was present once on the array and at a single peptide concentration (1E-1 M spotting concentration). Preparation of these chips was as described in Example 1. Twelve wells of a 96 well plate (FIG. 2A(a)), each well comprising the same peptide microarray, were incubated with GST-tagged PPAR gamma LBD domain (Invitrogen), and 11 different concentrations of ligand and 1 control (absence of ligand). […]
FIG. 2A(b) represents the top view of a row of wells in a 96-well plate (FIG. 2A(a)), showing the fluorescence results obtained for the PAR gamma interaction, induced by GW1929, with a the 48 peptide motives. A magnification is shown of the fluorescence image of the microarray incubated with the highest concentration (1E-3.7 M) of GW1929. […] However, when the effect of GW1929 is read out on peptide 45 (SEQ ID NO. 45), derived from PPRB (PPAR binding protein), this ligand is characterized as a binding agonist. […] As said, for all peptides an EC50 value could be determined, but in FIG. 3 only the values that could be determined accurately (regression coefficient of the fit better than 0.7) are represented.

- binding of PPAR gamma to peptide 31 (SEQ ID NO. 31, NCOR1): decreased binding
- binding of PPAR gamma to peptide 45 (SEQ ID NO. 45, PPRB): increase binding
Substance: GW1929
